In patent US6083941A, “Inhibition of NMDA receptor activity by pregnenolone sulfate derivatives” (Trustees of Boston University, priority 1998, dated 2000):
“And” between values parts separate entries of the source, which are not always exact repeats. Identical values can stand only once. Counter-ions that a name gives are not always drawn.

Key:
[1] = test system: mice; experiment: Behavioral observational assessment after i.p. steroid; assay type: in vivo; conditions: 25 mg/kg i.p.; for behavioral assessment: 30 min. after injection
Description: To test for behavioral effects, PS, 5β3αS, 5β3αHS, βE2 (17)HS, or βE2 (3)HS (7 mg/ml in DMSO) was administered to mice i.p. at 25 mg/kg (5 animals per drug group). Behavioral assessments were made 30 min. after injection using a comprehensive observational assessment of motor-affective responses, sensory-motor responses, posture, muscle tone, equilibration, CNS excitation, and autonomic function (Irwin, R. P., et al., NeuroSci. Lett., 141:30-44 (1968)). […] The latency to loss of righting reflex was 2.5±0.5 min., and the latency to regain the righting reflex was 83±11 min. The rapidity of onset argues that 5β3αHS readily crosses the blood brain barrier.

[2] = test system: NMDA receptor; experiment: Whole cell patch clamp, NMDA-induced current in cultured chick spinal cord neurons; assay type: cell-based; conditions: for average inhibition of the current induced by 30 μM NMDA: 50 μM steroid
Description: Cultures of dissociated spinal cord neurons were prepared as previously described (Farb, D. H., et al., J. Cell Biol., 80:651-661 (1979)). Briefly, the dissociated cells from 7-day chick embryos were plated on collagen-coated 35-mm tissue culture dishes in Eagle's minimum essential medium supplemented with 2.4 mM glutamine, 10% (v/v) heat-inactivated horse serum, 5% (v/v) chick embryo extract and antibiotics. Cultures were maintained in a humidified atmosphere of 5% CO2, 95% air at 37°. Cytarabine (1 μM) was added to the culture medium after 36 hr. of the initial plating to inhibit the proliferation of non-neuronal cells. One day later, this medium was replaced with a similar medium supplemented with 20.5 mM glucose, 19 mM KCl, and 2.5% chick embryo extract. Fresh medium was added twice weekly. Cultured neurons were used in experiments within 2-4 weeks after plating.
Experiments were carried out in 35-mm tissue culture dishes on the stage of an inverted phase contrast microscope. Whole cell currents were recorded by the whole cell variant of the patch clamp technique (Hamill, O. P., et al., Pfagers Arch. 891:85-100 (1981)). Patch electrodes had tip openings of about […] and resistances of 3-8 M.OMEGA. using an intracellular solution comprised of the following (in mM): 140 CsCl, 11 EGTA, and 10 HEPES (pH adjusted to 7.2 with CsOH). In experiments in which a high concentration of glycine was used, the intracellular solution was replaced with a low chloride (10 mM) pipette solution. This solution contained the following (in mM): 140 potassium gluconate, 10 KCl, 8 sodium gluconate, 11 EGTA, and 10 HEPES (pH adjusted to 7.2 with KOH). To prevent a marked run-down of NMDA-induced current at high NMDA concentrations, 4 mM potassium ATP was included in the intracellular solution. The bath solution contained the following (in mM): 150 NaCl, 4 KCl, 1 CaCl2, and 10 HEPES (pH adjusted to 7.2 with NaOH). No glycine was added to the solutions containing NMDA, because no additional glycine was required to obtain a robust NMDA response, and there was no effect of a maximal concentration (10 μM) of glycine on 5β3αS inhibition of the NMDA response. All experiments were performed at room temperature (23-25° C.).
Recordings were made using an Axopatch 1B patch clamp apparatus (Axon Instruments, Burlingame, Calif.). Cells with series resistances greater than 10 M.OMEGA. were rejected. After partial compensation, series resistances were between 3.5 and 6 M.OMEGA.. The holding potential was maintained at -70 mV unless otherwise noted. Currents were filtered at 1 kHz using an eight-pole Bessel filter (-3 dB) and digitized ([…]) using an on-line data acquisition system (pClamp, Axon Instruments).
Drug solutions were applied to single neurons by pressure ejection (15 psi) from seven-barrel pipettes. Seven-barrel pressure pipettes were positioned approximately […] from the neuronal soma. Under these conditions, the drug solution in the pressure pipette rapidly and effectively replaces the solution surrounding the target neurons with less than 10% dilution (Choi, D. W., et al., Nature (Lond.) 269:342-344 (1977); Chan, C. Y., et al., Life Sci., 83:2061-2069 (1983); Chan, C. Y. and Farb, D. H., J. Neurosci., 5:2365-2373 (1985)). All drugs were obtained from Sigma, with the except of AMPA hydrobromide (Research Biochemicals) and steroids (Steraloids). Stock solutions of steroids were prepared in dimethyl sulfoxide, the final concentration of which was 0.5% (v/v). To obviate the possible effects of dimethyl sulfoxide on the relevant agonist-induced currents, all other drug solutions including NMDA, kainate, AMPA and external buffer (in the pressure pipette) also contained 0.5% dimethyl sulfoxide. […]

## CC(=O)[C@H]1CC[C@H]2[C@@H]3CC[C@@H]4C[C@H](OC(=O)CCC(=O)O)CC[C@]4(C)[C@H]3CC[C@]12C [5β3αHS, 3α-hydroxy-5β-pregnan-20-one hemisuccinate]
[1]
  latency to loss of righting reflex: 2.5 ± 0.5 min
  latency to regain the righting reflex: 83 ± 11 min
  behavioral assessment: lost virtually all muscle tone

## CC(=O)[C@H]1CC[C@H]2[C@@H]3CC[C@@H]4C[C@H](OS(=O)(=O)O)CC[C@]4(C)[C@H]3CC[C@]12C [5β3αS, 3α-hydroxy-5β-pregnan-20-one sulfate]
[2]; in the absence of glycine
  average inhibition of the current induced by 30 μM NMDA: 49.1±3.4%
[2]; with added 10 μM glycine
  average inhibition of the current induced by 30 μM NMDA: 51.3±3.5%
[2]; 100 μM steroid applied with NMDA, holding potential -70 mV, sulfate
  inhibition of the response to 30 μM NMDA: 66% and 66.1±2.7%
[2]; 100 μM steroid, holding potential +50 mV
  average inhibition of the NMDA-induced current: 62.0±2.8%
[2]; 100 μM steroid, holding potential -70 mV, voltage dependence test
  average inhibition of the NMDA-induced current: 63.2±2.7%
[2]; curve-fit analysis
  maximal inhibition of the 30 μM NMDA response: 101.1%
[2]; in the presence of 50 μM 5β3αS
  NMDA nH in the presence of steroid: 1.46
[2]; read-out: EC50 for inhibition of the 30 μM NMDA response, concentration-response curve, curve-fit, 30 μM NMDA, sulfate
  EC50: 62 µM and 62.1 µM
[2]; steroid alone
  direct response to steroid applied alone: did not produce any direct response
[1]
  behavioral assessment: very minor behavioral impairment

## CC(=O)C1CCC2C3CC=C4CC(OS(=O)(=O)O)CCC4(C)C3CCC12C (stereo not drawn) [PS, pregnenolone sulfate]
[2]; 100 μM steroid in the electrode buffer
  average NMDA response with intracellular steroid: did not differ significantly from control
[2]; 100 μM steroid in the presence of 10 μM arachidonic acid
  potentiation of the NMDA response: 182±25%
[2]; 100 μM steroid in the presence of 200 μM 5β3βS
  potentiation of the NMDA response: still evident
[2]; 100 μM steroid, after about 1 hour of 4 mM DTT
  potentiation of the NMDA induced current: 165±26%
[2]; 100 μM steroid, in the absence of spermine
  potentiation of the response to 30 μM NMDA: 150±14%
[2]; 100 μM steroid, in the presence of 100 μM spermine
  potentiation of the NMDA response: 178±12%
[2]; after DTT plus NEM treatment
  potentiation of the 30 μM NMDA response: 103±23%
[2]; after approximately 1 hour of exposure to 10 mM DTT
  potentiation of the NMDA response: 161±12%
[2]; in the absence of intracellular PS
  potentiation of the NMDA response by extracellularly applied steroid: 158±24%
[2]; in the presence of intracellular PS (100 μM)
  potentiation of the NMDA response by extracellularly applied steroid: 152±23%
[1]
  behavioral assessment: unaffected except for a single decreased score on locomotor activity
